Measurements from patent US9700637B2, “Reaction-based fluorescent probes for detecting zinc” (Massachusetts Institute of Technology, priority 2013, dated 2017).

How the values were obtained:
[1] = Octanol/aqueous buffer partition coefficient (modified shake-flask); type: physicochemical; settings: octanol/water, buffered at pH 7 with 10 mM Tris
Excerpt: To understand better the limitations of TPP in directing fluorophores to mitochondria, we prepared two additional TPP-derivatives, one based on 6-carboxyfluorescein (FL-TPP) and one on coumarin 343 (C343-TPP). […] To test this hypothesis, we conducted live cell fluorescence imaging experiments with FL-TPP. […] Not only did FL-TPP fail to accumulate in mitochondria, it was cell-impermeable under our imaging conditions. In contrast, the cationic C343-TPP strongly colocalized with MitoTracker Red in live HeLa cells (Pearson's r=0.72±0.02). To quantify the effect of hydrophobicity in mitochondrial-targeting, we measured the octanol/aqueous buffer partition coefficient (log P) for our TPP constructs and two MitoTracker dyes. We then tabulated the log P, charge of the predominate species in solution at physiological pH, and cellular localization for each dye (Table 1). […] Along with cationic charge, a minimum level of lipophilicity must be reached in order to evade endo/lysosomal sequestration and enable effective mitochondrial targeting.

[2] = Charge of predominate species in solution at physiological pH; type: physicochemical; settings: physiological pH = 7.4
HeLa cells = assay: Live cell fluorescence imaging: localization, co-localization and uptake; type: cell-based; settings: fluorescence microscopy, live HeLa cells (Table 1)
Procedure: FIG. 6 depicts live cell imaging of HeLa cells. 500 nM mitotracker Red was bath-applied along with 1 μM DA-ZP1-TPP for 30 min at 37° C. and 5% CO2. After exposure to 25 μM 1:2 zinc:pyrithione, fluorescent images were acquired and the co-localization of the two sensors was assessed. The calculated Pearson's correlation coefficient (r) was r=0.581±0.097 (n=9), which represents the average of 9 ROIs over three independent plates.
FIG. 14 depicts live cell imaging of HeLa cells. 1 μM Lysotracker Red was bath-applied along with 2 μM ZP1-TPP. The calculated Pearson's correlation coefficient (r) was r=0.45±0.15, which represents the average of 9 ROIs over three independent plates.
FIG. 24 depicts fluorescence images of live HeLa cells. HeLa cells were pretreated with a 1 μM solution of DA-ZP1-TPP in dye- and serum-free medium for 30 min (37° C., 5% CO2). […] The signal from MitoTracker Red (c) correlates well with the signal from the zinc-bound sensor (d). Pearson's r=0.64±0.1 (n=18).
FIG. 27 depicts deconvoluted fluorescence microscopy images of live HeLa cells pretreated with ZP1-R9 (5 μM) or DA-ZP1-R9 (2.5 μM) and the indicated organelle stain. Top, ZP1-R9: (a) Differential interference contrast (DIC) image, (b) signal from ZP1-R9, (c) signal from LysoTracker Red, (d) overlay of (b) and (c). Pearson's r=0.42±0.16 (n=8). Bottom, DA-ZP1-R9: (e) DIC, (f) signal from DA-ZP1-R9 after treatment with 25 μM ZnPT, (g) signal from Hoechst 33258, (h) overlay of (f) and (g). Scale bar=25 μm.
FIG. 29 depicts deconvoluted fluorescence microscopy images of live HeLa cells pretreated with 1 μM DA-ZP1-R9 and 100 nM Dextran Red. (a) Differential interference contrast (DIC), (b) signal from DA-ZP1-R9 after addition of 25 μM ZnPT (c) signal from Dextran Red, (d) overlay of (b) and (c). Pearson's r=0.55±0.12 (n=11). Scale bar=25 μm.
FIG. 31 depicts deconvoluted fluorescence microscopy images of ZP1-(Fxr)3 and DA-ZP1-r(Fxr)3 in live HeLa cells. Top, cells pretreated with medium containing 2.5 μM of ZP1-(Fxr)3: (a) Differential interference contrast (DIC) image, (b) signal from ZP1-(Fxr)3, (c) signal from Dextran Red, (d) overlay of (b) and (c). Pearson's r=0.71±0.07. Bottom, cells pretreated with 1 μM DA-ZP1-r(Fxr)3: (e) DIC, (f) signal from DA-ZP1-r(Fx)3 after treatment with 25 μM ZnPT, (g) signal from MitoTracker Red, (h) overlay of (f) and (g). Pearson's r=0.41±0.09. Scale bar=25 μm.
FIG. 33 depicts deconvoluted fluorescence microscopy images of DCF-r(Fxr)3 and DA-DCF-r(Fxr)3 in live HeLa cells. Top, cells pretreated with 5 μM DCF-r(Fxr)3 and 500 nM MitoTracker Red for 30 min. (a) differential contrast image (DIC), (b) signal from DCF-r(Fxr)3, (c) signal from MitoTracker Red. Bottom, cells pretreated with 5 μM DA-DCF-r(Fxr)3 and 500 nM MitoTracker Red for 30 min. (d) DIC, (e) signal from DCF-r(Fxr)3, (f) signal from MitoTracker Red. The global Pearson's r=0.57±0.16 (n=37). Cells with high levels of DA-DCF-r(Fxr)3 (e, red outline) have a higher Pearson's r=0.83±0.08 (n=10). Scale bar=25 μm.
We used HeLa cells as a model system to evaluate the ability of DA-ZP1-TPP to target mitochondria and respond to changes in intracellular zinc levels. […] Over a two-hour period, the fluorescence intensity from the sensor remained constant, implying that the acetylated form is stable against intracellular esterases (FIG. 24e). […] Addition of 100 μM TPEN attenuated the fluorescence signal by ˜2.4-fold (FIG. 24f). […]

[3] = Deacetylation kinetics monitored by UV-vis absorbance (metal-mediated and uncatalyzed hydrolysis); type: physicochemical; settings: analogous conditions, EDTA or ZnCl2
Procedure: (§1) FIG. 23 depicts kinetic traces for the deacetylation of DA-ZP1-TPP. The half-life for deacetylation of a 2.75 μM solution of DA-ZP1-TPP, at 37° C. in 50 mM PIPES buffer (pH 7) and 100 mM KCl, was measured in the presence of 125 μM ZnCl2 (+Zn), 250 μM EDTA (−Zn), or 1.25 units of porcine liver esterase (Esterase). The change in absorbance at 520 nm (EDTA and esterase) or 510 nm (ZnCl2) was used to monitor the reaction.
FIG. 26 depicts in vitro characterization of DA-ZP1-A3. (a) UV-vis and (b) fluorescence spectra of a 5 μM solution of DA-ZP1-A3 in buffer (50 mM PIPES, 100 mM KCl; pH 7). Spectra were acquired initially, upon addition of 100 μM ZnCl2, and again after addition of 200 μM EDTA. (c) Time-dependent change in the normalized absorbance of a ca. 5 μM solution DA-ZP1-A3 at 37° C. in buffer (50 mM PIPES, 100 mM KCl; pH 7) in the presence of 100 μM ZnCl2 (λabs=510 nm) or EDTA (λabs=520 nm). (d) Integrated fluorescence intensity of a 1 μM solution of ZP1-A3 (circles) or DA-ZP1-A3 (squares) as a function of pH. […]
DA-ZP1-TPP has a zinc-induced fluorescence response and is relatively stable to uncatalyzed hydrolysis and esterase activity. […] Other late 3d-block transition metal ions, such as Co(II) and Cu(II), can coordinate to DA-ZP1-TPP but are generally not available in appreciable chelatable quantities within the cell. […]

porcine liver esterase = assay: Deacetylation by porcine liver esterase (UV-vis absorbance); type: in vitro ADME; settings: analogous conditions, porcine liver esterase
Procedure: as §1
DA-ZP1-TPP has a zinc-induced fluorescence response and is relatively stable to uncatalyzed hydrolysis and esterase activity. […] Other late 3d-block transition metal ions, such as Co(II) and Cu(II), can coordinate to DA-ZP1-TPP but are generally not available in appreciable chelatable quantities within the cell. In addition to monitoring selectivity in the fluorescence response, we used UV-vis spectroscopy to investigate the rate and zinc-specificity of metal-mediated ester hydrolysis. DA-ZP1-TPP deacetylation results in opening of the lactone ring and restoration of conjugation across the xanthene ring. By monitoring the absorbance of the xanthene it system, we could interrogate deacetylation kinetics in a manner that is independent of the fluorescence response. […] To determine whether ester hydrolysis depends on the metal-binding core of DA-ZP1-TPP, we measured the deacetylation kinetics of fluorescein diacetate (DA-FL) under analogous conditions. […]

Structure (SMILES) | log P [1] | Charge of the predominate species in solution [2] | Localization (HeLa cells) | stability to hydrolysis and zinc-mediated deacetylation [3] | response to esterase (deacetylation) (porcine liver esterase) | logP ([1]; octanol/aqueous buffer)
O=C(NCC[P+](c1ccccc1)(c1ccccc1)c1ccccc1)c1cc2cc3c4c(c2oc1=O)CCCN4CCC3 [C343-TPP] | 0.72 ± 0.05 | +1 | Mitochondria | – | – | –
CC(=O)Oc1ccc2c(c1)Oc1cc(OC(C)=O)ccc1C21OC(=O)c2ccccc21 [DA-FL, fluorescein diacetate, reference compound] | – | – | – | relatively stable to hydrolysis and zinc-mediated deacetylation | responds rapidly to esterase | –
CN1/C(=C/C=C/c2n(Cc3ccc(CCl)cc3)c3cc(Cl)c(Cl)cc3[n+]2Cc2ccc(CCl)cc2)Oc2ccccc21 [Mitotracker Green, reference compound] | – | +1 | Mitochondria | – | – | 0.56 ± 0.02
ClCc1ccc(C2=c3cc4c5c(c3Oc3c2cc2c6c3CCCN6CCC2)CCC[N+]=5CCC4)cc1.[Cl-] [Mitotracker Red, reference compound] | 1.15 ± 0.04 | +1 | Mitochondria | – | – | –
